Test results: US7608282B2, “Transdermal granisetron” (Strakan International Limited, priority 2003, dated 2009)
Where a name gives a salt, the structure may show the parent alone.

Experiments:
[1] = system: delayed emesis in cancer patients; settings: continual IV infusion at 40 μg/h; cited from earlier work
[2] = cited from earlier work
[3] = system: delayed emesis in cancer patients; assay: continual IV infusion of granisetron in cancer patients, delayed emesis (Kalaycio et al.); assay type: in vivo, human; settings: continual IV infusion at 40 μg/h
From the text: The minimum therapeutic plasma level required for efficacious use of any drug is ideally assessed by titrated, prolonged IV infusion studies coupled to clinical response in patients.

[4] = single administration of a 1 mg tablet, human volunteers; cited from earlier work
[5] = system: post-operative nausea and vomiting; settings: doses as low as 0.1 mg; cited from earlier work
[6] = acrylic adhesives, WO98/53815; cited from earlier work
[7] = continual twice daily dosing of 1 mg in cancer patients

Which results are given for `CN1C2CCCC1CC(NC(=O)c1nn(C)c3ccccc13)C2` (stereo not drawn) [granisetron, N-endo-9-methyl-9-azabicyclo[3.3.1]non-3-yl-1-methylindazole-3-carboxamide hydrochloride]?
effect on delayed emesis [1]: alleviate delayed emesis; average peak plasma levels [2, 7]: 6 ng/mL; clearance [2, 7]: 8.67 mL/min/kg; Tmax ([2]; oral granisetron, population not given): approximately 2 hours; plasma level maintained [3]: approximately 1.5 ng/ml; Cmax [4]: 3.6 ng/mL; prevention of post-operative nausea and vomiting [5]: effective

For `CN1[C@@H]2CC[C@H]1C[C@@H](OC(=O)c1c[nH]c3ccccc13)C2` [tropisetron], which “stability in adhesives containing nucleophilic (hydroxyl) moieties” value [6] is on record?
Its value is “unstable”.
